# Where a SMILES comes first, the peptide text is derived from it. The star is where a group is joined. Cbz = O=C(OCc1ccccc1)*; CH2F = FC*
# How the values were obtained:
# [1] = system: LTED (long-term estrogen deprived) cells; test: Growth inhibition and drug interaction assay (nuclei count, combination index), LTED; format: cell-based, human
# Experimental: When the combination index is equivalent to one (CI=1), this means the two drugs work together in an additive manner. […] The effective dose one (D1) is then plotted on the x-axis and the effective dose two (D2) was plotted on the y-axis. The plotting of the effective dose (ED) can be is done at Fa equals 0.5, 0.75, 0.9 and 0.95. This generates the isobologram.
# Cells were plated in six-well plates at a density of 60,000 cells per well. Two days later, the cells were treated in triplicate as described in the descriptions of the figures. At the end of treatment, cells were rinsed twice with saline. Nuclei were prepared by sequential addition of 1 mL HEPES-MgCl2 solution (0.01 mol/L HEPES and 1.5 mmol/L MgCl2) and 0.1 mL ZAP solution [0.13 mol/L ethylhexadecyldimethylammonium bromide in 3% glacial acetic acid (v/v)] and were counted using a Coulter counter (BeckmanCoulter, Inc., Fullerton, Calif.). […] The combination index and values with a mean and standard deviation were calculated using the Monte Carlo simulation using the computer software CalcuSyn from Biosoft (Cambridge, U.K.) [10].
# The nature of the interaction between the agents was evaluated by the combination index method of Chou and Talalay [8,9]. […]
# Where D is the dose that yields x % growth inhibition and α=0 for mutually exclusive drugs and α=1 for mutually non-exclusive drugs. Synergy as calculated and defined by the CalcuSyn software as a CI<1; additivity is CI=1 and antagonism is CI>1[10].
# LTED cells [2] = test: FTS-induced apoptosis and caspase involvement in LTED cells; format: cell-based, human
# Experimental: FTS has been reported to invoke cell death through caspase activation in non-breast tissues. To address whether FTS was promoting death of breast cancer cells by activation of caspases LTED cells were treated with either vehicle, FTS, or FTS in the presence of increasing concentrations of the pan-caspase inhibitor z-VAD-fmk (See FIG. 1C top panel). […] Caspase-8 activity does appear to increase; however this is not inhibited by Z-IETD-FMK. See FIG. 2, showing a time course bar graph (2A) and a cell viability versus concentration curve (2B) displaying (FIG. 2A) the effect of FTS and curcumin in combination on wild type MCF-7 cells; and (FIG. 2B) the effect of FTS alone or in combination with curcumin on MCF-7 cell viability.
# LTED cells [3] = test: Levels of apoptotic proteins in treated LTED cells (immunoblot of cytosolic and mitochondrial fractions, immunoprecipitation); format: cell-based, human; settings: for Mcl-1 level: FTS 75 μM 0-48 h (by 24 h) or estradiol 0-48 h; for Bim level (BimEL, BimL): FTS 75 μM 0-48 h or estradiol 0-48 h (early time points 4, 8 h); for Survivin level: FTS 75 μM (from 8 to 16 h, undetectable at 24 and 48 h) or estradiol; for Phospho JNK level: FTS 75 μM over 48 hours or estradiol; for Cytochrome c level in the cytosol / Smac (Smac/Diablo) level in the cytosol: FTS at 24 and 48 h, estradiol by 48 h
# Experimental: The inventors herein initially examined the class of proteins which influences MOMP (mitochondrial outer membrane pore) formation, a key component of the intrinsic pathway of apoptosis. Pro-apoptotic members such as Bax, Bim, and Bak, promote the release of Cytochrome c from the mitochondria, whereas anti-apoptotic members, such as Bcl-2 and Mcl-1, prevent release. The balance of pro-apoptotic and anti-apoptotic Bcl-2 proteins therefore influences the fate of the cell. LTED cells were treated with 75 μM FTS for 0, 4, 8, 16, 24 and 48 h with examination of cytosolic fractions (FIG. 1A).
# To ascertain whether Bax was activated in FTS-treated LTED cells, Bcl-2 was immunoprecipitated and then probed for Bim and Bax (See FIG. 1B). Probed cell extracts were probed with the use of an antibody that recognizes only the conformationally altered Bax protein. […] The pro-apoptotic effect of Bim is predominantly through its binding to Bcl-2 that ablates Bcl-2 pro-survival function. As shown in FIG. 1B we found the interaction between Bim and Bcl-2 is increased, whereas the interaction between Bax and Bcl-2 was reduced. As evidence of the exodus of proteins through mitochondrial membrane pores, Cytochrome c and Smac levels in the cytosol were increased at 24 and 48 h, times when Mcl-1 was decreased and Bim, increased (FIG. 1A). […] After showing these effects on MOMP, other key factors involved in apoptosis were examined.
# Cells were treated with estradiol for 0, 2, 4, 8, 24 and 48 h and cytosolic fractions prepared. […] Mitochondrial fractions (FIG. 1D, right panel), confirmed the increase in Bim isoforms. […] Because Bim appeared to be critical for estradiol-mediated apoptosis, we carried out a titration of E2, probed for Bim and found it increased over time (See FIG. 1E).
# Cells grown in 100 mm dishes were washed with cold PBS and extracted with 1 ml lysis buffer (50 mM Tris-HCl, 150 mM NaCl, 5 mM EDTA, 25 mM NaF, 2 mM NaVO4, 5% glycerol, 1% Triton X-100, 10 μg/ml leupeptin, aprotinin, and pepstatin). Samples were incubated on ice for 30 min, sonicated, and centrifuged at 14,000 rpm for 10 min at 4° C. Supernatants containing 0.5 mg total protein were incubated with antibody against the target protein at 4° C. overnight before addition of 40 μl Protein G beads (Invitrogen) and continued incubation at 4° C. for 2 h. The protein G beads with immunocomplex were centrifuged at 14,000 rpm for 20 sec. The supernatant was carefully removed. The beads were washed twice with 1 ml buffer II (20 mM MOPS, 2 mM EGTA, 5 mM EDTA, 25 mM NaF, 40 mM β-glycerophosphate, 10 mM sodium pyrophosphate, 2 mM NaVO4, 0.5% Triton X-100, 1 mM PMSF, 10 μg/ml leupeptin, aprotinin, and pepstatin) and then boiled in 50 μl 2× Laemmli's buffer. The samples were subjected to electrophoresis in 10% SDS polyacrylamide gel followed by immunoblotting.
# MCF-7-5C cells = test: Apoptosis in MCF-7-5C cells, E2 and T-DM-1 alone and in combination; format: cell-based; settings: agent alone
# MCF-7 cells = test: Growth inhibition and drug interaction assay (nuclei count, combination index), MCF-7; format: cell-based; settings: Homo sapiens, MCF7, FIG. 3, read-out: concentration with 50% inhibitory effect
# Description: We examined some of these agents in both the non-adapted cell lines (See FIGS. 4, 6, 8) and adapted cell lines (See FIGS. 5, 7, 9). We treated breast cancer cells with increasing concentrations of the individual drugs followed by testing with their combinations. We determined the number of cells that were killed (fraction affected, fa) and the number of cells that were not affected by the drug (fraction unaffected, fu) (See FIG. 4). Then dose effect curves are transformed into their corresponding linear forms by the median-effect plot where y=log(fa/fu) vs. x=log (D)[8,34]. From the median effect plot the combination index (CI) can be determined. […]
# Cells were plated in six-well plates at a density of 60,000 cells per well. […] Nuclei were prepared by sequential addition of 1 mL HEPES-MgCl2 solution (0.01 mol/L HEPES and 1.5 mmol/L MgCl2) and 0.1 mL ZAP solution [0.13 mol/L ethylhexadecyldimethylammonium bromide in 3% glacial acetic acid (v/v)] and were counted using a Coulter counter (BeckmanCoulter, Inc., Fullerton, Calif.). […] The combination index and values with a mean and standard deviation were calculated using the Monte Carlo simulation using the computer software CalcuSyn from Biosoft (Cambridge, U.K.).
# The nature of the interaction between the agents was evaluated by the combination index method of Chou and Talalay. […]
# [4] = FTS-treated LTED cells, Bcl-2 immunoprecipitation
Compound,Mcl-1 level (LTED cells [3]; LTED cells),"Bim level (BimEL, BimL) (LTED cells [3]; LTED cells)",Survivin level (LTED cells [3]; LTED cells),Phospho JNK level (LTED cells [3]; LTED cells),Cytochrome c level in the cytosol (LTED cells [3]; LTED cells),Smac (Smac/Diablo) level in the cytosol (LTED cells [3]; LTED cells),induction of apoptosis (MCF-7-5C cells),further results
"CC(C)=CCC/C(C)=C/CC/C(C)=C/CSc1ccccc1C(=O)O [FTS, S-trans, trans-Farnesylthiosalicyclic acid]",decrease,increase,decreased,increased,increased,increased,–,"cell number ([1]; FTS alone, doses 25, 50, 75 and 100 μM): 14 % of control; caspase-8 changes (death receptor pathway) (LTED cells [2]; FTS-treated LTED cells): no substantial caspase-8 changes; Apoptosis inducing factor (AIF) in the cytosol (LTED cells [3]; FTS-treated LTED cells): appeared in the cytosol only at 48 h; interaction between Bax and Bcl-2 (LTED cells [3]; [4]): reduced; interaction between Bim and Bcl-2 (LTED cells [3]; [4]): increased; Bax activation (conformationally altered Bax) (LTED cells [3]; FTS-treated LTED cells, conformation-specific antibody): underwent a conformational change; Bcl-2 level (LTED cells [3]; LTED cells, FTS 75 μM 0-48 h, cytosolic fractions): unchanged; XIAP level (LTED cells [3]; LTED cells, FTS 75 μM or estradiol): did not change; p21 level (LTED cells [3]; LTED cells, FTS 75 μM, from 4 h to 48 h): steady decrease"
T-DM1,–,–,–,–,–,–,induced apoptosis,–
COC(=O)C[C@H](NC(=O)[C@H](C)NC(=O)[C@@H](NC(=O)OCc1ccccc1)C(C)C)C(=O)CF [z-VAD-fmk] (Cbz-Val-Ala-Asp(OMe)-CH2F),–,–,–,–,–,–,–,"effect on FTS-induced apoptosis (LTED cells [2]; LTED cells, FTS plus increasing concentrations of pan-caspase inhibitor): blocked"
"C[C@]12CC[C@@H]3c4ccc(O)cc4CC[C@H]3[C@@H]1CC[C@@H]2O [E2, 17β-Estradiol]",decreased,increased,not,increased,released into the cytosol,released into the cytosol,induced apoptosis,"Bok level (LTED cells [3]; LTED cells, titration of E2): increased in a concentration-dependent manner"
CC[C@@H](C(=O)[C@@H](C)[C@@H](O)[C@H](C)[C@@H]1O[C@@H]([C@@H](CC)C(=O)O)CC[C@@H]1C)[C@H]1O[C@]2(C=C[C@@H](O)[C@]3(CC[C@@](C)([C@H]4CC[C@](O)(CC)[C@H](C)O4)O3)O2)[C@H](C)C[C@@H]1C [Salinomycin],–,–,–,–,–,–,–,IC50 (MCF-7 cells): 2 µM
COc1cc(/C=C/C(=O)CC(=O)/C=C/c2ccc(O)c(OC)c2)ccc1O [curcumin],–,–,–,–,–,–,–,"concentration at which initial effects in reducing cell number were observed ([1]; dose response, preliminary studies): 250 nM; concentration showing effects in reducing cell number, later studies ([1]; later studies): 125 nM"

# Reference: patent publication US20140161827A1, “COMPOSITIONS AND METHODS FOR TREATING CANCER” (University of Virginia Patent Foundation, priority 2011, published 2014)
